For this data set the following is noted: in water.

Turning to `Cc1ccc(C(C)C)cc1O`, the solubility (mole fraction) – broadly, the moles of solute divided by all moles in the saturated solution – worked out at 0.000144 (298.15 K); 0.000155 (303.15 K); 0.000164 (308.15 K); 0.000169 (313.15 K); 0.00017 (318.15 K); 0.000172 (323.15 K).

As to `Cc1ccc(C)cc1`, the solubility (mole fraction) came out at 2.62e-05 (298.15 K), 3.07e-05 (308.15 K) and 3.65e-05 (323.15 K).

`CC(C)=CCC/C(C)=C/CO`: the solubility (mole fraction) runs as follows: (298.15 K) 0.000103; (303.15 K) 0.000139; (308.15 K) 0.000375; (313.15 K) 0.000643; (318.15 K) 0.000922; (323.15 K) 0.00127.

Turning to `CC(C)=CCCC(C)CCO` (stereo not drawn), the solubility (mole fraction) by setting is: (298.15 K) 0.000218; (303.15 K) 0.000187; (308.15 K) 0.000187; (313.15 K) 0.000208; (318.15 K) 0.000249; (323.15 K) 0.000308.

Regarding `C=CCc1ccc(O)c(OC)c1`, the solubility (mole fraction) reads like this: (298.15 K) 0.000228; (303.15 K) 0.00023; (308.15 K) 0.000254; (313.15 K) 0.000254; (318.15 K) 0.000286; (323.15 K) 0.000312.

For the molecule `Cc1ccccc1`, the solubility (mole fraction) by setting is: (298.15 K) 0.000113; (308.15 K) 0.000118; (313.15 K) 0.00012; (323.15 K) 0.000126.

For `C=CC(C)(O)CCC=C(C)C` (stereo not drawn), the solubility (mole fraction) turned out to be 0.000181 (298.15 K); 0.000332 (303.15 K); 0.000472 (308.15 K); 0.000592 (313.15 K); 0.000844 (318.15 K); 0.00111 (323.15 K).

Consider `Cc1ccc(C(C)C)cc1`, for which the solubility (mole fraction) amounted to 4.8e-06 (298.15 K); 6.9e-06 (303.15 K); 9.9e-06 (308.15 K); 1.24e-05 (313.15 K); 1.51e-05 (318.15 K); 1.89e-05 (323.15 K).

The values above are taken from BigSolDB 2.1.
